The record followed here is publication PMC9607644, “Glycoconjugation of Quinoline Derivatives Using the C-6 Position in Sugars as a Strategy for Improving the Selectivity and Cytotoxicity of Functionalized Compounds” (Molecules, 2022).

Assay [1] has as its system HCT-116 cells. The experiment in a line: MTT cytotoxicity assay, HCT-116. It is filed as cell-based, human. The settings on record: for IC50: Homo sapiens, HCT-116; for Selectivity Index (SI) HCT-116: IC50 NHDF-Neo / IC50 HCT-116, 72 h incubation; for inhibition of cell growth at the highest doses, HCT-116: 72 h. As to the method:
An in vitro biological test package was performed for the obtained derivatives. […] The MTT test is a colorimetric method for detecting proliferating cells. It is based on the ability of the enzyme mitochondrial dehydrogenase to convert yellow tetrazole salt (MTT) into purple formazan. The amount of the product formed in the reaction, determined spectrophotometrically, is proportional to the number of living cells.
The in vitro cytotoxicity of the test compounds was determined by the MTT (3-[4,5–dimethylthiazol-2-yl]-2,5-diphenyltetrazolium bromide) test (Sigma-Aldrich, Taufkirchen, Germany) according to the manufacturer’s protocol. At the beginning, for each cell line were determined the optimal seeding densities to ensure exponential growth throughout the experimental period. The confluent layer of cells were trypsinized, collected, and suspended in a growth medium. […] Then, the culture medium was replaced with solutions of different concentrations of test compounds in a fresh medium. Stock solutions of test compounds were prepared in DMSO and diluted to final concentrations with appropriate volumes of the growth medium directly before the experiment. Cells suspended in a medium supplemented with 0.5% DMSO (the amount of DMSO necessary to dissolve the highest dose of the respective sample) were used as a control of the experiment. […] The compound-treated cells were incubated for a further 24–72 h. […] After this time, the MTT dye was carefully removed, and the acquired formazan crystals were dissolved by DMSO (Chempur, Piekary Śląskie, Poland). The proliferation was evaluated by measuring the formazan product’s absorbance at a wavelength of 570 nm with a microplate spectrophotometer (Epoch, BioTek, Winooski, VT, USA). All experiments were conducted in triplicate with four technical repeats for each tested concentration. Results were expressed as the percentage change in the viability of the test cells relative to the untreated control cells and calculated as the inhibitory concentration (IC50). […] The results are expressed as the average value ± standard deviation (SD).

Assay [2] concerns NHDF-Neo cells. As to the kind of experiment: MTT cytotoxicity assay, NHDF-Neo. The assay is classed as cell-based. The settings on record: Homo sapiens, incubation time 72 h. As to the method: An in vitro biological test package was performed for the obtained derivatives. All newly synthesized compounds were assessed for their cytotoxic activity against human cell lines with increased GLUT expression: the colon cancer cell line (HCT-116) and the breast cancer cell line (MCF-7), as well as on normal human dermal fibroblasts cells (NHDF-Neo), using the MTT assay (3-(4,5-dimethylthiazol-2-yl)-2,5-diphenyltetrazolium bromide). The MTT test is a colorimetric method for detecting proliferating cells. It is based on the ability of the enzyme mitochondrial dehydrogenase to convert yellow tetrazole salt (MTT) into purple formazan. The amount of the product formed in the reaction, determined spectrophotometrically, is proportional to the number of living cells. The antiproliferative activity was expressed as the concentration that caused 50% inhibition of the growth of the population of cells treated with the test compounds relative to the control cells (inhibitory concentration activity—IC50). Table 1 and Table 2 summarize the IC50 values calculated for all tested compounds.
The in vitro cytotoxicity of the test compounds was determined by the MTT (3-[4,5–dimethylthiazol-2-yl]-2,5-diphenyltetrazolium bromide) test (Sigma-Aldrich, Taufkirchen, Germany) according to the manufacturer’s protocol. At the beginning, for each cell line were determined the optimal seeding densities to ensure exponential growth throughout the experimental period. The confluent layer of cells were trypsinized, collected, and suspended in a growth medium. The cell suspension were then seeded into 96-well plates at a density of 1 × 10^4 or 2 × 10^3 (HCT-116) or 5 × 10^3 (MCF-7, NHDF-Neo) per well and incubated for 24 h under standard conditions (5% CO2, 37 °C). Then, the culture medium was replaced with solutions of different concentrations of test compounds in a fresh medium. Stock solutions of test compounds were prepared in DMSO and diluted to final concentrations with appropriate volumes of the growth medium directly before the experiment. Cells suspended in a medium supplemented with 0.5% DMSO (the amount of DMSO necessary to dissolve the highest dose of the respective sample) were used as a control of the experiment. […] The compound-treated cells were incubated for a further 24–72 h. After that, the medium was removed and the MTT solution (50 µL, 0.5 mg/mL in PBS) was added into each well and incubated for another 3 h under standard conditions (5% CO2, 37 °C). After this time, the MTT dye was carefully removed, and the acquired formazan crystals were dissolved by DMSO (Chempur, Piekary Śląskie, Poland). The proliferation was evaluated by measuring the formazan product’s absorbance at a wavelength of 570 nm with a microplate spectrophotometer (Epoch, BioTek, Winooski, VT, USA). All experiments were conducted in triplicate with four technical repeats for each tested concentration. Results were expressed as the percentage change in the viability of the test cells relative to the untreated control cells and calculated as the inhibitory concentration (IC50). The IC50 values were defined as the drug concentration that was necessary to reduce cell proliferation to 50% of the untreated control and this parameter was calculated using CalcuSyn software (version 2.0, Biosoft, Cambridge, UK). The results are expressed as the average value ± standard deviation (SD).

The test system of assay [3] is MCF-7 cells. The experiment in a line: Annexin V-FITC/PI apoptosis flow cytometry, MCF-7. The assay is classed as cell-based, human. The settings on record: IC50 dose, 24 h. From the text: Apoptosis is a natural biological process involving programmed cell death and plays an important role in maintaining correct homeostasis between cell proliferation and cell death. This is in contrast to necrosis, which is accompanied by acute inflammation, preceded by cell degradation due to the loss of the integrity of the cell membrane. It is possible to distinguish viable cells from apoptotic and necrotic cell fractions using Annexin V-FITC and Propidium Iodide (PI). Annexin V-FITC labels phosphatidylserine residues that, after the start of apoptosis, are located on the outer surface of the cell membrane, enabling the identification of cells in the early stages of apoptosis. PI binds stoichiometrically to intracellular DNA during late apoptosis and necrosis when the cell membrane has been damaged. This combination allows for the differentiation of early apoptotic (A+/P−), late apoptotic (A+/P+), necrosis (A−/P+), and normal (A−/P−) cells that can be quantified by flow cytometry.
The cell cycle and the type of cell death induced by the test compounds were measured by using flow cytometry according to the manufacturer’s protocol. […] Control cells were grown with fresh medium supplemented with 0.5% DMSO. After 24 h of incubation, the cells were collected by trypsinization. Then, samples were centrifuged (3 min, 2000 rpm, RT) and washed with PBS, after which the cells were centrifuged again (3 min, 2000 rpm, RT) and the supernatant was carefully removed. The resulting precipitate contained cells, which were used for flow cytometry experiments.
The fraction of dead cells after treatment with the test compounds were detected using the FITC Annexin-V Apoptosis Detection Kit with PI (BioLegend, San Diego, CA, USA). […] 250 μL of the Annexin-V Binding Buffer was then added and the samples were incubated in the dark on ice for 15 min.

With `OC[C@H]1O[C@@H](n2cc(COc3cccc4cccnc34)nn2)[C@H](O)[C@@H](O)[C@@H]1O` [Compound E-2, reference compound], the IC50 worked out at 212 ± 7.71 µM in assay [1] (MTT, incubation time 24 h); 162 ± 5.97 µM in assay [1] (MTT, incubation time 72 h); 233 ± 9.44 µM in assay [2]. Moreover, the “Selectivity Index (SI) HCT-116” value in assay [1] worked out at 1.43. Besides, the “growth inhibitory activity in words, HCT-116” value in assay [1] (MTT) was “practically did not affect the cell viability”.

On to `O[C@@H]1[C@@H](O)[C@@H](O[C@H]2O[C@H](Cn3cc(COc4cccc5cccnc45)nn3)[C@@H](O)[C@H](O)[C@H]2O)O[C@H](Cn2cc(COc3cccc4cccnc34)nn2)[C@H]1O` [Compound D-2], for which the IC50 in assay [1] (MTT, incubation time 24 h) was found to be 53.4 ± 5.14 µM; in assay [1] (MTT, incubation time 72 h) it was 21.3 ± 0.94 µM; in assay [2], 70.7 ± 0.75 µM. The “Selectivity Index (SI) HCT-116” value in assay [1] is listed as 3.32. Moreover, the “apoptotic cells, MCF-7” value in assay [3] is reported as 70%.

Take `OC1O[C@H](Cn2cc(COc3cccc4cccnc34)nn2)[C@@H](O)[C@H](O)[C@H]1O` (stereo partly drawn) [Compound A-2]: the IC50 in assay [1] (MTT, incubation time 24 h) was 191 ± 2.46 µM; in assay [1] (MTT, incubation time 72 h), 22.3 ± 0.7 µM; in assay [2], 317 ± 9.46 µM. Besides, the “Selectivity Index (SI) HCT-116” value in assay [1] was determined as 14.21. In addition, the “inhibition of cell growth at the highest doses, HCT-116” value (“inhibition of cell growth” below) in assay [1] (MTT) came to 100%. Besides, the “apoptotic cells, MCF-7” value in assay [3] is given as 39%.

Take `CC(=O)OC[C@H]1O[C@@H](n2cc(COc3cccc4cccnc34)nn2)[C@H](OC(C)=O)[C@@H](OC(C)=O)[C@@H]1OC(C)=O` [Compound E-1, reference compound]: the IC50 in assay [1] (MTT, incubation time 72 h) came to 45.7 ± 1.81 µM; in assay [2], 55.3 ± 5.08 µM. Further, in assay [1], the “Selectivity Index (SI) HCT-116” value is listed as 1.21. In addition, in assay [1] (MTT), the “inhibition of cell growth” value turned out to be 100%. Also, the “apoptosis induction in words, MCF-7” value in assay [3] was “did not induce apoptosis”.

As to `CC(=O)OC1O[C@H](Cn2cc(COc3cccc4cccnc34)nn2)[C@@H](OC(C)=O)[C@H](OC(C)=O)[C@H]1OC(C)=O` (stereo partly drawn) [Compound A-1], the IC50 came to 83.5 ± 1.91 µM in assay [1] (MTT, incubation time 24 h); 12 ± 0.9 µM in assay [1] (MTT, incubation time 72 h); 130 ± 1.49 µM in assay [2]. The “Selectivity Index (SI) HCT-116” value in assay [1] amounted to 10.83. Moreover, in assay [1] (MTT), the “inhibition of cell growth” value is 100%. The “apoptotic cells, MCF-7” value in assay [3] is reported as 35%.
